According to ChEMBL document CHEMBL1201862, “PubChem BioAssay data set” (2004):
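Cultured in 96-well plates, cells were exposed to test compound for 48 hours across five concentrations. The concentration for 50% growth inhibition is given as GI50.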 Activity calls are given as the source filed them. Rule as the data show it: active = GI50 up to about 1.1 µM and inactive = higher.

Experiments:
Assay in all cases: DTP human tumour cell line panel, 48 h
[1] = test system: OVCAR-3
[2] = test system: SN12C
[3] = test system: TK-10
[4] = test system: A498
[5] = test system: KM12
[6] = test system: MOLT-4
[7] = test system: RPMI-8226
[8] = test system: UO-31
[9] = test system: K562
[10] = test system: Malme-3M
[11] = test system: EKVX
[12] = test system: SF-268
[13] = test system: M14
[14] = test system: OVCAR-4
[15] = test system: UACC-62
[16] = test system: SNB-75
[17] = test system: OVCAR-8
[18] = test system: SK-MEL-28
[19] = test system: SF-539
[20] = test system: SR

C/C(C[n+]1ccccc1)=N\N=C(N)N
GI50 [1]: > 100 µM (inactive)
GI50 [2]: > 100 µM (inactive)
GI50 [3]: > 100 µM (inactive)
GI50 [4]: > 100 µM (inactive)
GI50 [5]: > 100 µM (inactive)
GI50 [6]: > 100 µM (inactive)
GI50 [7]: > 100 µM (inactive)
GI50 [8]: > 100 µM (inactive)
GI50 [9]: > 100 µM (inactive)
GI50 [10]: > 100 µM (inactive)
GI50 [11]: > 100 µM (inactive)
GI50 [12]: > 100 µM (inactive)
GI50 [13]: > 100 µM (inactive)
GI50 [14]: > 100 µM (inactive)
GI50 [15]: > 100 µM (inactive)
GI50 [16]: > 100 µM (inactive)
GI50 [17]: > 100 µM (inactive)
GI50 [18]: > 100 µM (inactive)

C[Si](C)(N[Si](C)(C)OCCc1ccccc1)OCCc1ccccc1
GI50 [1]: > 100 µM (inactive)
GI50 [2]: > 100 µM (inactive)
GI50 [3]: > 100 µM (inactive)
GI50 [4]: > 100 µM (inactive)
GI50 [5]: > 100 µM (inactive)
GI50 [7]: > 100 µM (inactive)
GI50 [8]: > 100 µM (inactive)
GI50 [11]: > 100 µM (inactive)
GI50 [13]: > 100 µM (inactive)
GI50 [14]: > 100 µM (inactive)
GI50 [15]: > 100 µM (inactive)
GI50 [16]: > 100 µM (inactive)
GI50 [17]: > 100 µM (inactive)
GI50 [18]: > 100 µM (inactive)

CC[n+]1c(-c2ccccc2)c2cc(N)ccc2c2ccc(N)cc21 [HOMIDIUM BROMIDE]
GI50 [1]: 3.07 µM (inactive)
GI50 [2]: 3.24 µM (inactive)
GI50 [3]: 8.36 µM (inactive)
GI50 [19]: 1.53 µM (inactive)
GI50 [5]: 2.49 µM (inactive)
GI50 [6]: 2.36 µM (inactive)
GI50 [9]: 2.96 µM (inactive)
GI50 [13]: 13.6 µM (inactive)
GI50 [14]: 4.44 µM (inactive)
GI50 [16]: 0.0372 µM (active)
GI50 [18]: 2.05 µM (inactive)

O=C(O)C1CC2C=CCC(C2)C1 (configuration not stated)
GI50 [1]: > 100 µM (inactive)
GI50 [20]: > 100 µM (inactive)
GI50 [3]: > 100 µM (inactive)
GI50 [5]: > 100 µM (inactive)
GI50 [6]: > 100 µM (inactive)
GI50 [7]: > 100 µM (inactive)
GI50 [8]: > 100 µM (inactive)
GI50 [9]: > 100 µM (inactive)
GI50 [10]: > 100 µM (inactive)
GI50 [11]: > 100 µM (inactive)
GI50 [12]: > 100 µM (inactive)
GI50 [13]: > 100 µM (inactive)
GI50 [14]: > 100 µM (inactive)
GI50 [15]: > 100 µM (inactive)
GI50 [16]: > 100 µM (inactive)
GI50 [17]: > 100 µM (inactive)
GI50 [18]: > 100 µM (inactive)

CC1SC2=NC3=C(c4ccccc4C3=O)C(c3ccccc3Cl)N2C1=O (configuration not stated)
GI50 [1]: > 100 µM (inactive)
GI50 [2]: > 100 µM (inactive)
GI50 [3]: > 100 µM (inactive)
GI50 [4]: > 100 µM (inactive)
GI50 [19]: > 100 µM (inactive)
GI50 [5]: > 100 µM (inactive)
GI50 [6]: 75 µM (inactive)
GI50 [7]: 58.5 µM (inactive)
GI50 [8]: > 100 µM (inactive)
GI50 [9]: 90.2 µM (inactive)
GI50 [10]: > 100 µM (inactive)
GI50 [11]: > 100 µM (inactive)
GI50 [12]: > 100 µM (inactive)
GI50 [13]: > 100 µM (inactive)
GI50 [14]: 86.1 µM (inactive)
GI50 [15]: 80.2 µM (inactive)
GI50 [16]: 63 µM (inactive)
GI50 [17]: > 100 µM (inactive)
GI50 [18]: > 100 µM (inactive)

COC1(O)c2cccc(Cl)c2C(=O)N1C1(C(N)=O)CCCCC1 (configuration not stated)
GI50 [1]: > 100 µM (inactive)
GI50 [2]: > 100 µM (inactive)
GI50 [4]: > 100 µM (inactive)
GI50 [19]: > 100 µM (inactive)
GI50 [5]: > 100 µM (inactive)
GI50 [6]: > 100 µM (inactive)
GI50 [7]: > 100 µM (inactive)
GI50 [8]: > 100 µM (inactive)
GI50 [9]: > 100 µM (inactive)
GI50 [10]: > 100 µM (inactive)
GI50 [11]: > 100 µM (inactive)
GI50 [12]: > 100 µM (inactive)
GI50 [14]: > 100 µM (inactive)
GI50 [15]: > 100 µM (inactive)
GI50 [16]: > 100 µM (inactive)
GI50 [17]: > 100 µM (inactive)
GI50 [18]: > 100 µM (inactive)

COc1ccc(C[C@H]2COC(=O)[C@@H]2Cc2cccc(Br)c2)cc1OC
GI50 [1]: 20 µM (inactive)
GI50 [2]: 27.5 µM (inactive)
GI50 [20]: 3.05 µM (inactive)
GI50 [3]: 30.4 µM (inactive)
GI50 [19]: 19.5 µM (inactive)
GI50 [5]: 18.8 µM (inactive)
GI50 [6]: 8.75 µM (inactive)
GI50 [7]: 17.8 µM (inactive)
GI50 [8]: 22.9 µM (inactive)
GI50 [9]: 5.97 µM (inactive)
GI50 [10]: 21.2 µM (inactive)
GI50 [11]: 29.4 µM (inactive)
GI50 [12]: 29.7 µM (inactive)
GI50 [13]: 14.4 µM (inactive)
GI50 [14]: 10.4 µM (inactive)
GI50 [15]: 25.6 µM (inactive)
GI50 [16]: 8.99 µM (inactive)
GI50 [17]: 24.4 µM (inactive)
GI50 [18]: 30.5 µM (inactive)

CCc1ccc2nc(-c3ccc(O)cc3)sc2c1
GI50 [1]: 13.6 µM (inactive)
GI50 [2]: 14.6 µM (inactive)
GI50 [3]: 17.9 µM (inactive)
GI50 [4]: 18 µM (inactive)
GI50 [19]: 11.7 µM (inactive)
GI50 [5]: 14.3 µM (inactive)
GI50 [6]: 13.6 µM (inactive)
GI50 [7]: 13.9 µM (inactive)
GI50 [8]: 11.8 µM (inactive)
GI50 [9]: 19.6 µM (inactive)
GI50 [10]: 17.3 µM (inactive)
GI50 [12]: 17.4 µM (inactive)
GI50 [13]: 18.7 µM (inactive)
GI50 [15]: 12.4 µM (inactive)
GI50 [17]: 19.5 µM (inactive)

Nc1ccc(S(=O)(=O)c2ccc(NCN3C(=O)NC(=O)C(=O)C3=O)cc2)cc1 [ALLANTODAPSONE]
GI50 [1]: > 100 µM (inactive)
GI50 [2]: > 100 µM (inactive)
GI50 [20]: > 100 µM (inactive)
GI50 [3]: > 100 µM (inactive)
GI50 [4]: > 100 µM (inactive)
GI50 [5]: > 100 µM (inactive)
GI50 [6]: > 100 µM (inactive)
GI50 [8]: > 100 µM (inactive)
GI50 [9]: > 100 µM (inactive)
GI50 [10]: > 100 µM (inactive)
GI50 [11]: > 100 µM (inactive)
GI50 [12]: > 100 µM (inactive)
GI50 [13]: > 100 µM (inactive)
GI50 [14]: > 100 µM (inactive)
GI50 [15]: > 100 µM (inactive)
GI50 [17]: > 100 µM (inactive)
GI50 [18]: > 100 µM (inactive)

COc1ccc(Nc2cnc3cc(N)ccc3n2)cc1OC
GI50 [1]: > 100 µM (inactive)
GI50 [2]: 39.3 µM (inactive)
GI50 [20]: 33.7 µM (inactive)
GI50 [3]: > 100 µM (inactive)
GI50 [5]: 70.5 µM (inactive)
GI50 [6]: 36.5 µM (inactive)
GI50 [7]: 23.9 µM (inactive)
GI50 [8]: > 100 µM (inactive)
GI50 [9]: 46.8 µM (inactive)
GI50 [10]: > 100 µM (inactive)
GI50 [11]: > 100 µM (inactive)
GI50 [12]: 74.1 µM (inactive)
GI50 [13]: > 100 µM (inactive)
GI50 [15]: 72.3 µM (inactive)
GI50 [16]: > 100 µM (inactive)
GI50 [17]: 37.4 µM (inactive)
GI50 [18]: > 100 µM (inactive)

c1ccc(COc2cccc3ccc[n+](Cc4ccccc4)c23)cc1
GI50 [3]: 12.1 µM (inactive)
GI50 [4]: 16.6 µM (inactive)
GI50 [19]: 7.82 µM (inactive)
GI50 [5]: 3.41 µM (inactive)
GI50 [6]: 5.35 µM (inactive)
GI50 [7]: 2.77 µM (inactive)
GI50 [8]: 25.8 µM (inactive)
GI50 [9]: 2.38 µM (inactive)
GI50 [10]: 4.23 µM (inactive)
GI50 [11]: 6.43 µM (inactive)
GI50 [12]: 4.06 µM (inactive)
GI50 [13]: 9.38 µM (inactive)
GI50 [14]: 3.6 µM (inactive)
GI50 [15]: 4.6 µM (inactive)
GI50 [16]: 5.2 µM (inactive)
GI50 [18]: 3.85 µM (inactive)

Cc1c2ccncc2c(C)c2c1[nH]c1ccc(OCCN(C)C)cc12
GI50 [1]: 0.333 µM (active)
GI50 [2]: 0.309 µM (active)
GI50 [4]: 1.19 µM (inactive)
GI50 [19]: 0.832 µM (active)
GI50 [5]: 0.105 µM (active)
GI50 [6]: 0.0193 µM (active)
GI50 [7]: 0.0638 µM (active)
GI50 [8]: 0.641 µM (active)
GI50 [9]: 0.0614 µM (active)
GI50 [10]: 1.16 µM (inactive)
GI50 [11]: 0.526 µM (active)
GI50 [12]: 0.151 µM (active)
GI50 [14]: 0.135 µM (active)
GI50 [15]: 0.729 µM (active)
GI50 [16]: 0.47 µM (active)
GI50 [17]: 0.112 µM (active)
GI50 [18]: 0.577 µM (active)
